In US20180243297A1, “Amino pyrazine derivatives as phosphatidylinositol 3-kinase inhibitors” (Novartis AG, priority 2014, published 2018):
Read-outs that look alike come from different tables or passages of the source. One block for each molecule: values may come before it.

Key:
[1] = molecular target: T1, PI 3-kinase beta (Rat-1_PI3Kbeta cells, Myr-HA-hp110 beta) (Homo sapiens, UniProt P42338); assay: Cellular p-Akt (S473) assay, Surefire format, assay I1; type: cell-based; details: non-asterisked data: version I1 (Surefire format); read-out: Assay I PI3Kβ IC50
T1 construct: expressed in transfected cells
Method: The assay allows characterization of kinase signaling in cells as well as measurement of kinase inhibitor effects.
(§1) Using Rat-1 cells stably expressing myr-HA-tagged versions of the human PI3Kdelta, PI3Kalpha, or PI3Kbeta p110 catalytic subunit isoforms, the assay was developed as a two-plate protocol in a 384-well format.
(§2) For compound testing, the cells were seeded at a density of 4000 (Rat-1_PI3Kdelta), 7500 (Rat-1_PI3Kalpha), or 6200 (Rat-1_PI3Kbeta) cells in 20 μl complete growth medium into cell culture treated 384-well plates and were grown at 37° C./5% CO2/90% humidity for 24 h. Shortly before compound transfer, the complete medium was removed, 30 μl assay buffer (DMEM high glucose, 1×MEM NEAA, 10 mM HEPES, 2 mM L-glutamine, 0.1% (w/v) BSA) was added and 10 μl of the compound predilutions were transferred to the cells.
(§3) All fits were performed with the program XLfit4 (ID Business Solutions, Guildford, UK).

[2] = molecular target: T2, PI 3-kinase delta (Rat-1_PI3Kdelta cells, Myr-HA-hp110 delta) (Homo sapiens, UniProt O00329); assay: Cellular p-Akt (S473) assay, Surefire format, assay J1; type: cell-based; details: non-asterisked data: version J1 (Surefire format); read-out: Assay J PI3Kδ IC50
T2 construct: expressed in transfected cells
T2 sequence (O00329 1-1044): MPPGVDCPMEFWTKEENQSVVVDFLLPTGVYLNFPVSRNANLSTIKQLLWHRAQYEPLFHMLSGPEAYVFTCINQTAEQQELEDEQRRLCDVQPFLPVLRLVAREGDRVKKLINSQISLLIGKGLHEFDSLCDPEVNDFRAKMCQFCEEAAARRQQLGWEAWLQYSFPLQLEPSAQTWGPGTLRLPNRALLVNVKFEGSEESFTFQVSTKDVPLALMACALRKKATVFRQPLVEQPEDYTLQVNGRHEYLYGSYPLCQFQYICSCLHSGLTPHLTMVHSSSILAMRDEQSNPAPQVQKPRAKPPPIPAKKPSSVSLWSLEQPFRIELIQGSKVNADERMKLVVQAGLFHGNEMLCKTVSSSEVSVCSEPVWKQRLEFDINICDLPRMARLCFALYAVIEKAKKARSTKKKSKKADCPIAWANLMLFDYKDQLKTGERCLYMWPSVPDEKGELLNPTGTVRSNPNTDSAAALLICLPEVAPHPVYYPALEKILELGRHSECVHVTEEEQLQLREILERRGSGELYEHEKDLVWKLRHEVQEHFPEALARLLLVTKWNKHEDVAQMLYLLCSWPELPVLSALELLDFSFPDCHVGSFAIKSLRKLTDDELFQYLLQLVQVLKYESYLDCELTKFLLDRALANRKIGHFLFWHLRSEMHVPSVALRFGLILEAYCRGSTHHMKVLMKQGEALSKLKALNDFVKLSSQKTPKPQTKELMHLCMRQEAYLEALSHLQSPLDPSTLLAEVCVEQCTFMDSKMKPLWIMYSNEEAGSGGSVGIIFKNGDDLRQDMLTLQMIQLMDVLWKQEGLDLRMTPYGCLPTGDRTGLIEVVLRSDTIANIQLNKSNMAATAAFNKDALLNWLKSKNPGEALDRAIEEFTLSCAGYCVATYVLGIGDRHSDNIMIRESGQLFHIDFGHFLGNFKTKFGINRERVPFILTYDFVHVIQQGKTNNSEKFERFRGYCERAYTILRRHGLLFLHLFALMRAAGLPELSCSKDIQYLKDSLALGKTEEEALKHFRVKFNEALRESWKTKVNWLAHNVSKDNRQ
From the text: (§4) Cellular Assays for PI 3-Kinase Alpha (H1), Beta (I1) and Delta (J1): Surefire Format
(§5) AlphaScreen (Amplified Luminescent Proximity Homogeneous Assay, ALPHA, Perkin Elmer) is a non-radioactive bead-based proximity assay technology to study biomolecular interactions in a homogenous microtiter plate format. The brand name SureFire denotes AlphaScreen assays that are adapted to quantify the phosphorylation of endogenous cellular proteins in cell lysates, by using matched antibody pairs, which consist of an anti-phospho-kinase and an anti-kinase antibody. The assay allows characterization of kinase signaling in cells as well as measurement of kinase inhibitor effects.
as §1, §2

[3] = molecular target: T3, PI 3-kinase alpha (Rat-1_PI3Kalpha cells, Myr-HA-hp110 alpha) (Homo sapiens, UniProt P42336); assay: Cellular p-Akt (S473) assay, Surefire format, assay H1; type: cell-based; details: non-asterisked data: version H1 (Surefire format); read-out: Assay H PI3Kα IC50
T3 construct: expressed in transfected cells
From the text: as §4, §5, §1, §2

[4] = Microsomal clearance assay, assay M; type: in vitro ADME; details: intrinsic clearance in rat liver microsomes
Method: The experiments were performed in 96-well glass plates at 37° C. on an automated Tecan EVO platform. Test compounds at a concentration of 10 mM in pure DMSO were diluted 1:1000 in water to 10 μM. […] Reactions were initiated by the addition of 150 μL of a cofactor solution containing 2 mM NADPH.

[5] = molecular target: T4, PI 3-kinase gamma (U937 cells, MIP1α-stimulated AKT phosphorylation) (Homo sapiens, UniProt P48736); assay: Cellular U937 AKT assay (HTRF), assay K2; type: cell-based; details: HTRF format, read-out: Assay K2 PI3Kγ IC50
T4 construct: endogenous in cells; host or cells: U937 human monocyte cell line
Method: (§6) In assays K1 and K2, the compounds were tested for their ability to inhibit the production of phosphorylated AKT (Protein Kinase B) generated in a PI 3-kinase gamma isoform-dependent process in a U937 human cell line.
Cellular U937 AKT Assay for PI 3-Kinase Gamma (K2)
U937 cells are split every 3-4 days: 5×10^6 cells/flask (175 cm^2) in 40 ml.
Semi-automated preparation of cell lysates: Cells were resuspended in HBSS, seeded (200′000 cells/well/60 μl) into a 384-well plate and incubated in a humidified 37° C., 5% CO2 incubator for 1.5 hours. The compounds were diluted with HBSS and 40 μl were added to the starved cells (except for wells 24 I-P). […] The cells were then incubated for 30 minutes at 37° C. and 5% CO2. Stimulation occurred during 3 minutes by addition of 20 μl MIP1α (final 10 ng/ml, diluted in HBSS) in the incubator. Wells 24 A-H were only stimulated with HBSS.
The stimulation was then stopped by putting the cell plates on ice (filled with cold water). The cells were then centrifuged at 1200 rpm and 4° C. for 3 minutes.
80 μl of supernatant was removed. The cells were again centrifuged at 1200 rpm and 4° C. for 3 minutes. The supernatant was then removed by turning plates upside down and 30 μl of lysis buffer were added. The plate was incubated at room temperature for 30 minutes under shaking. 16 μl were then transferred to a ProxiPlate Plus 384-well. […]

[6] = molecular target: Vps34 (Homo sapiens, UniProt Q8NEB9); assay: Kinase Glo luminescent kinase assay (Kglo), assay C; type: biochemical
Method: (§7) Kinase Glo Luminescent Kinase Assay (Kglo) for Pb 3-Kinase Alpha (A), Pb 3-Kinase Beta (B), Vps34 (C), Pb 4-Kinase Beta (D)
(§8) The Kinase Glo Luminescent Kinase Assay (Promega, Madison/Wis., USA) is a homogeneous HTS method of measuring kinase activity by quantifying the amount of ATP remaining in solution following a kinase reaction.
(§9) L-α-phosphatidylinositol (PI), provided as 10 mg/ml solution in methanol, was transferred into a glass tube and dried under a nitrogen beam. It was then resuspended in 3% OctylGlucoside (1-0-n-octyl-beta-D-glucopyranoside) by vortexing and stored at 4° C. 5 μL of a mix of PI/OctylGlucoside with the PI 3-kinase alpha and PI 3-kinase beta subtypes, or Vps34 or PI 4-kinase beta were added. Kinase reactions were started by the addition of 5 μl of an ATP-mix containing in a final volume 10 μL 10 mM TRIS-HCl pH 7.5, 3 mM MgCl2, 50 mM NaCl, 0.05% CHAPS, 1 mM DTT and 1 μM ATP at room temperature.
as §3

[7] = molecular target: mTOR (Homo sapiens, UniProt P42345); assay: Lanthascreen kinase binding assay, assay G
Method: Lanthascreen™ Kinase Binding Assay for mTOR (G)
Binding of an inhibitor to the kinase competes for binding with the tracer, resulting in a loss of FRET.
50 nL of compound dilutions were dispensed onto white 384-well small volume polystyrene plate.

[8] = molecular target: T4, PI 3-kinase gamma (U937 cells, MIP1α-stimulated AKT phosphorylation); assay: Cellular U937 AKT assay (MSD), assay K1; type: cell-based; details: MSD format, read-out: Assay K1 PI3Kγ IC50
Method: as §6
Cellular U937 AKT Assay for PI 3-Kinase Gamma (K1)
Cells are incubated at 37° C., 5% CO2.
Before beginning the cell manipulations described below, the MSD (Meso Scale Discovery) assay plate is blocked by addition of 150 μl/well blocking buffer supplied and incubated with shaking for a minimum of one hour at room temperature. All steps of the assay must be performed quickly, with accurately timed incubation periods and observing temperature controls where indicated.
falcon tube, counted and centrifuged for eight minutes at 300 g at room temperature. Supernatant is aspirated, the cell pellet resuspended and washed once in HBSS (Hank's Balanced Salt Solution) by centrifugation for eight minutes at 300 g at room temperature. […] Assay plates are incubated for 1.5 hours at 37° C., 5% CO2 to allow background AKT phosphorylation to reduce before the compound stimulation step.
Compound titrations are prepared in a fresh flat-bottomed, 96-well plate, by 10-fold serial dilution of 40 μM into HBSS 0.8% DMSO; pipette tips are replaced after each dilution is made. Compound concentrations at this stage are 4-times the final concentration required in the assay plate. Cells are stimulated with compound or HBSS 0.8% DMSO by direct transfer of 50 μl/well from the compound dilution plate. The assay plate containing compound-treated cells is then incubated for 30 minutes at 37° C. A standard plate layout is used for all experiments.
Compound-treated cells, in addition to positive control wells (“max MIP1α”), are stimulated with 50 μL per well of 40 ng/ml MIP1α (R&D Systems catalogue number 270-LD, lyophilized stock reconstituted to 50 μg/ml with PBS 0.1% BSA). Negative control wells (“min HBSS”), are stimulated with 50 μl/well of HBSS in the absence of MIP1α. Final compound concentrations are now diluted 4-fold giving a top concentration of 10 μM; where added, the final concentration of MIP1α is 10 ng/ml. Cells are incubated with MIP1α for 3 minutes, at 37° C., 5% CO2. After the three minute stimulation period, the assay plate is kept ice cold at all times. Assay plates are centrifuged for 2 minutes at 300 g, 4° C. and supernatant is removed by gently inverting, and then blotting the plate on tissue. Cells are then washed by gentle addition of 150 μL/well of ice cold HBSS and centrifugation at 300 g, for 5 minutes at 4° C. Supernatant is
aspirated and the plate blotted as described above. […] Plates are incubated on ice for 20 minutes before centrifugation at 841 g for 5 minutes, 4° C.
Block buffer is aspirated from the MSD plate, and the plate washed four times with 300 μl/well Tris wash buffer. 25 μL of cell lysate is then transferred from the assay plate to the washed MSD plate which is sealed and incubated at room temperature for one hour with shaking. […] The plate is washed four times with 300 μl per well of Tris wash buffer and 150 μl per well of Read buffer is added, taking care to avoid the introduction of bubbles. The plate is immediately read using an MSD SECTOR Imager 6000. Results are exported in Excel and the percentage of phosphorylated AKT is calculated using the equation: % Phosphoprotein=((2*Phospho signal)/(Phospho signal+Total signal))*100. Compound-mediated inhibition of AKT phosphorylation is analysed using Prizm V Graphpad software.

[9] = molecular target: PI 3-kinase delta (Homo sapiens, UniProt O00329); assay: TR-FRET Adapta assay, assay F
Method: (§10) TR-FRET Adapta Assay for PI 3-Kinase Gamma (E), PI 3-Kinase Delta (F)
(§11) The TR-FRET Adapta™ Universal Kinase Assay Kit was purchased from lnvitrogen Corporation (Carlsbad/CA, USA) (Cat. No. PV5099).
(§12) PIK3CD substrate phosphatidylinositol (PI) was obtained from lnvitrogen (vesicules consisting of 2 mM phosphatidylinositol (PI) in 50 mM HEPES pH7.5; Cat. No. PV5371). PIK3CG substrate phosphatidylinositol-4,5-bisphosphate (PIP(4,5)2 was obtained from lnvitrogen (PIP2:PS large unilamellar vesicules consisting of 1 mM PIP2: 19 mM PS in 50 mM HEPES pH7.5, 3 mM MgCl2, 1 mM EGTA; Cat. No. PV5100).
(§13) The Adapta™ assay can be divided into two phases: a kinase reaction phase and an ADP detection phase. In the kinase reaction phase, all kinase reaction components are added to the well and the reaction is allowed to incubate for a set period of time specific for each kinase. […] In the presence of an inhibitor, the amount of ADP formed by the kinase reaction is reduced, and the resulting intact antibodytracer interaction maintains a high TR-FRET signal.
(§14) 50 nL of compound dilutions were dispensed onto white 384-well small volume polystyrene plate. […]
(§15) Data are analyzed using Excel fit software or Graphpad Prism. IC50 values were derived by fitting a sigmoidal dose-response curve to a plot of assay readout over inhibitor concentration. […]

[10] = molecular target: PI 3-kinase alpha (Homo sapiens, UniProt P42336); assay: Kinase Glo luminescent kinase assay (Kglo), assay A; type: biochemical; details: read-out: Assay A PI3Kα IC50
Method: as §7, §8, §9, §3

[11] = molecular target: PI 3-kinase gamma (Homo sapiens, UniProt P48736); assay: TR-FRET Adapta assay, assay E; type: biochemical
Method: as §10, §11, §12, §13, §14, §15

[12] = test system: IL-8-induced neutrophil shape change in human whole blood; assay: Whole blood neutrophil shape change assay, assay L; type: cell-based; details: read-out: Assay L WBSC IC50
Method: Whole Blood Neutrophil Shape Change Assay (L)
IL-8 was made up to 2 μM stocks in 0.1% bovine serum albumin/PBS and stored at −80° C. On the day IL-8 was diluted in PBS (phosphate buffered saline) 10 minutes before use. IL-8 was used at final concentration of 2 nM and a concentration range from 0.003 to 200 nM for the donor dose response curve.
Assay fixative solution was prepared fresh each day from 10× concentrated CellFlX™ solution diluted 1:10 in sterile distilled water and then 1:4 with PBS. Assay fixative solution was kept on ice prior to use.
A 10× lysis buffer was prepared in advance by dissolving 20.75 g NH4Cl and 2.5 g KHCO3 in 250 ml sterile H2O. This 10× lysis buffer was filtered under sterile conditions and stored for up to two weeks at 4° C. On the day a 1× lysis solution was prepared with sterile distilled H2O and kept on ice prior to use.
The test compounds were prepared as 10 mM stock solutions in 100% DMSO and were stored at 4° C. Once in use for an assay 10 mM stock compounds were thawed and stored at RT protected from light. Compound dilutions were prepared fresh on the day. The first series of dilutions in 100% DMSO were done first thing in the morning. Only once blood had been collected and arrived in laboratory was the next set of dilutions into PBS carried out (1:10 PBS, 10% DMSO). This limited the exposure of diluted compound to plastic and made sure the exposure timing was consistent between assays.
Compound dilutions in 100% DMSO were prepared as described previously. Human whole blood was collected in K2 EDTA Vacutainers. Once blood was in the laboratory, compound dilutions into PBS were carried out as described previously and depicted in Table 1.
The outer wells of the deep well assay plate were filled with 1200 μl of sterile distilled H2O in an effort to limit edge effects (rows A1-H1, A1-A12, A12-H12).
An IL-8 dose response was determined for each blood donor examined, to monitor the donor response to IL-8. […] In addition the assay window without DMSO was also assessed each day. […]

T4 sequence (P48736 whole entry): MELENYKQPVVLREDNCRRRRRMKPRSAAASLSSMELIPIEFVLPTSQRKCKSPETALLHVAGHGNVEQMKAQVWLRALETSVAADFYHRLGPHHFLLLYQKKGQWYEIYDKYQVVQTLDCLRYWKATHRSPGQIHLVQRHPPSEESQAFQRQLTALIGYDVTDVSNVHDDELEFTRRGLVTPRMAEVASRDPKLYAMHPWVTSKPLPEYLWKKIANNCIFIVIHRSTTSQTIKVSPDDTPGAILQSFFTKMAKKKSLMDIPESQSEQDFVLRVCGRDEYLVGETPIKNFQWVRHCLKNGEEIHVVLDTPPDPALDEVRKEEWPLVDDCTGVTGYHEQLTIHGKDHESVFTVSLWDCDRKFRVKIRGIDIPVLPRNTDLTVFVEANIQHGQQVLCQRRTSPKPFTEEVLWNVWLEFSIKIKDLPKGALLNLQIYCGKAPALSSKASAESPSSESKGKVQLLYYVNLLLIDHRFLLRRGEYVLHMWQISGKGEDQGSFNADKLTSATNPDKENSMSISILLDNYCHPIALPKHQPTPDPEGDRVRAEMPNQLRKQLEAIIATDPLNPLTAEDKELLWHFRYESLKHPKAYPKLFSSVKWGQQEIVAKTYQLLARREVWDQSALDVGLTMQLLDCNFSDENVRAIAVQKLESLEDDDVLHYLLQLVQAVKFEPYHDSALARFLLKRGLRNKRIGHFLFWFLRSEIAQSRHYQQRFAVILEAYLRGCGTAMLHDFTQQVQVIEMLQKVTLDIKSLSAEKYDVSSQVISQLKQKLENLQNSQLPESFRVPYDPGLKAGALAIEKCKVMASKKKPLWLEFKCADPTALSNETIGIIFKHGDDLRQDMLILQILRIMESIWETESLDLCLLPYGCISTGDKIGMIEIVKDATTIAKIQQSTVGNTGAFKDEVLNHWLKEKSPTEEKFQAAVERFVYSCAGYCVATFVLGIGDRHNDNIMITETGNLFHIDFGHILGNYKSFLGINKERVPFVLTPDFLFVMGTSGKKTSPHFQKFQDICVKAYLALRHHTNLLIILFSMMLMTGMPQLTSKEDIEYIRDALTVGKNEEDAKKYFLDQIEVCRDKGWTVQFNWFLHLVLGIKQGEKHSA
T3 sequence (P42336 whole entry): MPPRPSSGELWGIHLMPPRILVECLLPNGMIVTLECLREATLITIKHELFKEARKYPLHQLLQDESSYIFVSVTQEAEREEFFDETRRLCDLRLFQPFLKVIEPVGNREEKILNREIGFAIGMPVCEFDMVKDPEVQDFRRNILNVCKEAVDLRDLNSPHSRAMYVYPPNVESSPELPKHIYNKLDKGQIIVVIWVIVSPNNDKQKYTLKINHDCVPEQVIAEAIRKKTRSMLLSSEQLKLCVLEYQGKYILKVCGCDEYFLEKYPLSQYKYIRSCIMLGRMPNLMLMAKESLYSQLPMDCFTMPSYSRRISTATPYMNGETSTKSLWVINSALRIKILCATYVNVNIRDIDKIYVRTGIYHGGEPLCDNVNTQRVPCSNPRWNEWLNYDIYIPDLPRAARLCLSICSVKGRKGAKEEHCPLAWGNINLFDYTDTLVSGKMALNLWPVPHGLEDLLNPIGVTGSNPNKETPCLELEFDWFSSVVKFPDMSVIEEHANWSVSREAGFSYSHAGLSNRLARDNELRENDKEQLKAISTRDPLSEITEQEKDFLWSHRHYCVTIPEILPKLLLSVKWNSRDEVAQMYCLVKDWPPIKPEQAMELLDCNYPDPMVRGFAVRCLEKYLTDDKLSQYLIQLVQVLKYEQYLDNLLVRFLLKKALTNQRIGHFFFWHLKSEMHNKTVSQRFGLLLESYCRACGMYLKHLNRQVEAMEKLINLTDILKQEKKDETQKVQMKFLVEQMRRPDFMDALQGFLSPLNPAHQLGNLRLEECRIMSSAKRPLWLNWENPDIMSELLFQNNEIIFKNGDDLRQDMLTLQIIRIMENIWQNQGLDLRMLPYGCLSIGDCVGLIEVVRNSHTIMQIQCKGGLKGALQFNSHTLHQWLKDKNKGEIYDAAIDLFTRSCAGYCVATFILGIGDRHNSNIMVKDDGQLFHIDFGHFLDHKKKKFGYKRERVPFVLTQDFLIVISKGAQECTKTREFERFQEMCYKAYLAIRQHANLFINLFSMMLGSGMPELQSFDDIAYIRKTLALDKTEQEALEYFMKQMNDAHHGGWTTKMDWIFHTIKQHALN
Sequence of Vps34 (Q8NEB9 whole entry, species assumed): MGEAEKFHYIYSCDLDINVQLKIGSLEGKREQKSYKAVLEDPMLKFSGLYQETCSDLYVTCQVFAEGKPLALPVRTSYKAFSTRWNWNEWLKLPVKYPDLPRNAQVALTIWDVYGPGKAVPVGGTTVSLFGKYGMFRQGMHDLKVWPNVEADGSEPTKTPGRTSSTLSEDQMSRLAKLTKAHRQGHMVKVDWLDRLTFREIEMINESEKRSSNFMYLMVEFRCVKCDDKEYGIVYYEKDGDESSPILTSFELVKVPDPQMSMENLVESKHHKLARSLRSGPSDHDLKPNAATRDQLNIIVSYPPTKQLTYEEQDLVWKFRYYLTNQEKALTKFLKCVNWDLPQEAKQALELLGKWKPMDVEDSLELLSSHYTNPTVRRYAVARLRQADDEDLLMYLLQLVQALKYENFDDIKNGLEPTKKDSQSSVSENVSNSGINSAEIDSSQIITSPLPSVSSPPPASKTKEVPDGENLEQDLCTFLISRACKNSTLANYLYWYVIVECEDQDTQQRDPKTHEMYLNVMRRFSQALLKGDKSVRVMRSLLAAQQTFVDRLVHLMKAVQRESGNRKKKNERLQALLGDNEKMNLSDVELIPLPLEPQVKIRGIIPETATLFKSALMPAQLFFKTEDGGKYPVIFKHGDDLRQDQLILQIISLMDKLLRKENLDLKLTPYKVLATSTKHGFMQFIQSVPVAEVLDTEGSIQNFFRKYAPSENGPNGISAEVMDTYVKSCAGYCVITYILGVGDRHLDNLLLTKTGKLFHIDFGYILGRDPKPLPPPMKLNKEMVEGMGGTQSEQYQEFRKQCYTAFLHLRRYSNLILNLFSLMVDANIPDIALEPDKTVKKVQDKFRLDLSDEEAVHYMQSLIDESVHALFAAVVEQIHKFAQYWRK
T1 sequence (P42338 whole entry): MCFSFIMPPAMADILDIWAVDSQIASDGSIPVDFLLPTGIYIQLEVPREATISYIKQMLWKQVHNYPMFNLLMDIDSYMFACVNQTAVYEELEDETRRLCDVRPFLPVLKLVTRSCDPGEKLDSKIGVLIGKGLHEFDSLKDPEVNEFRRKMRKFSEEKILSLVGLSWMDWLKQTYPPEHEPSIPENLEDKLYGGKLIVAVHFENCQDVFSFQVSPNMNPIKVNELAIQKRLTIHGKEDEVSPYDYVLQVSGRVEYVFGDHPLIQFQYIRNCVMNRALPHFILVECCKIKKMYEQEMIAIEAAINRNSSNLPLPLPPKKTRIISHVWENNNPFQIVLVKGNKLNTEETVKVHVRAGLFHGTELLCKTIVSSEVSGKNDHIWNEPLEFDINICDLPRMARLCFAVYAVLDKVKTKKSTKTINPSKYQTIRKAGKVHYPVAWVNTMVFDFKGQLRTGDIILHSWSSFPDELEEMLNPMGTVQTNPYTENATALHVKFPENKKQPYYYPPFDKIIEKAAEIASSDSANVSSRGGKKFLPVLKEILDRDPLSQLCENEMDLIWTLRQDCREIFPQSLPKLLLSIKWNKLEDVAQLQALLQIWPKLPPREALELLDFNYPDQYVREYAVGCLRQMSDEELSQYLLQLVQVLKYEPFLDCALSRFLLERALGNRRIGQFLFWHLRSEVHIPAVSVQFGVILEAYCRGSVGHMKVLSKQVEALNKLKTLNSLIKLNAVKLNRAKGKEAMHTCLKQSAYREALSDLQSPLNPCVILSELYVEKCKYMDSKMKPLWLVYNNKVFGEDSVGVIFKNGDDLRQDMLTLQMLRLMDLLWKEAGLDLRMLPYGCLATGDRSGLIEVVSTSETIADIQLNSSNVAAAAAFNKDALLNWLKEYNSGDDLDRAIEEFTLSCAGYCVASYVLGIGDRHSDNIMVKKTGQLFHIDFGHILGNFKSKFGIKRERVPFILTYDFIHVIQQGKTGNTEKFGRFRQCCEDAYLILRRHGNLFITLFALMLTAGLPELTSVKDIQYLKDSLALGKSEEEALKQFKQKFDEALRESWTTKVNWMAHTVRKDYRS
Sequence of PI 3-kinase gamma (P48736 whole entry): as the sequence (P48736 whole entry) above
Sequence of PI 3-kinase delta (P27986 461-568 partner limits assumed, one chain of several): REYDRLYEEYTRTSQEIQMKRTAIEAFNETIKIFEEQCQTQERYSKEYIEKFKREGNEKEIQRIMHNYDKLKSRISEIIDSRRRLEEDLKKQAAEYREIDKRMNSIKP
Sequence of PI 3-kinase alpha (P42336 whole entry): as the sequence (P42336 whole entry) above
Sequence of PI 3-kinase alpha (P27986 461-568 partner limits assumed): as the sequence (P27986 461-568 partner limits assumed, one chain of several) above

IC50 [1]: 4.86 µM
IC50 [2]: 7.03 µM
IC50 [3]: 4.95 µM
SMILES: Cc1ccc(S(=O)(=O)NCCC(C)(C)O)cc1-c1cnc(N)c(-c2cncnc2)n1 [Example 119.20, 3-(5-amino-6-(pyrimidin-5-yl)pyrazin-2-yl)-N-(3-hydroxy-3-methylbutyl)-4-methylbenzenesulfonamide]

Assay M RLM CI(int) [4]: 56 µL/min/mg
IC50 [1]: 8.16 µM
IC50 [2]: 1.04 µM
IC50 [3]: 1.1 µM
IC50 [5]: 0.047 µM
SMILES: Cc1ncc(-c2nc(-c3cc(S(=O)(=O)NCCC(C)(C)O)ccc3C)cnc2N)o1 [Example 119.40, 3-(5-amino-6-(2-methyloxazol-5-yl)pyrazin-2-yl)-N-(3-hydroxy-3-methylbutyl)-4-methylbenzenesulfonamide]

IC50 [6]: 9.4 µM
SMILES: Cc1ccc(S(=O)(=O)NCC(C)(C)O)cc1-c1cnc(N)c(-c2nn(C)nc2C)n1 [Example 19, 3-[5-Amino-6-(2,5-dimethyl-2H-[1,2,3]triazol-4-yl)-pyrazin-2-yl]-N-(2-hydroxy-2-methyl-propyl)-4-methyl-benzenesulfonamide]

IC50 [6]: 9.4 µM
SMILES: Cc1ncc(-c2nc(-c3cc(S(=O)(=O)NCC4(CO)CCOCC4)ccc3C)cnc2N)s1 [Example 45.9, 3-(5-Amino-6-(2-methylthiazol-5-yl)pyrazin-2-yl)-N-((4-(hydroxymethyl)tetrahydro-2H-pyran-4-yl)methyl)-4-methylbenzenesulfonamide]

IC50 ([7]; Lanthascreen kinase binding assay): 9.1 µM
SMILES: Cc1ccc(S(=O)(=O)NC[C@](C)(O)C(F)(F)F)cc1-c1cnc(N)c(-n2cncn2)n1 [Example 127.23, (S)-3-(5-amino-6-(1H-1,2,4-triazol-1-yl)pyrazin-2-yl)-4-methyl-N-(3,3,3-trifluoro-2-hydroxy-2-methylpropyl)benzenesulfonamide]

IC50 [8]: 0.85 µM
SMILES: Cc1ccc(S(=O)(=O)N[C@@H]2CCOC2)cc1-c1cnc(N)c(-n2cncn2)n1 [Example 127.20, (R)-3-(5-amino-6-(1H-1,2,4-triazol-1-yl)pyrazin-2-yl)-4-methyl-N-(tetrahydrofuran-3-yl)benzenesulfonamide]

SMILES: Cc1ccc(S(=O)(=O)NCC2COCCN2C)cc1-c1cnc(N)c(-c2cn(C)nc2C)n1 (single isomer, unassigned) [Example 128.3a, (R or S)-3-(5-Amino-6-(1,3-dimethyl-1H-pyrazol-4-yl)pyrazin-2-yl)-4-methyl-N-((4-methylmorpholin-3-yl)methyl)benzenesulfonamide]
IC50 [9]: 0.57 µM
IC50 [10]: 0.23 µM
IC50 ([11]; TR-FRET Adapta assay, read-out: Assay E PI3Kγ IC50): 0.027 µM
IC50 [5]: 0.241 µM

IC50 [12]: 1.07 µM
IC50 [8]: 0.179 µM
SMILES: Cc1ccc(S(=O)(=O)NCC2(CO)CCOCC2)cc1-c1cnc(N)c(-n2cncn2)n1 [Example 127.50]

Assay M RLM CI(int) [4]: 20 µL/min/mg
SMILES: Cc1ccc(S(=O)(=O)N[C@@H]2CNC[C@H]2O)cc1-c1cnc(N)c(-n2cncn2)n1 [Example 127.60]

IC50 [6]: 9.1 µM
IC50 [7]: 9.1 µM
SMILES: Cc1cc(-c2nc(-c3cc(S(=O)(=O)NCC(C)(C)O)ccc3C)cnc2N)on1 [Example 88, 3-(5-Amino-6-(3-methylisoxazol-5-yl)pyrazin-2-yl)-N-(2-hydroxy-2-methylpropyl)-4-methylbenzenesulfonamide]

IC50 [12]: 1.61 µM
Assay M RLM CI(int) [4]: 78 µL/min/mg
SMILES: Cc1cc(-c2nc(-c3cc(S(=O)(=O)NC4CCOCC4)ccc3C)cnc2N)ccn1 [Example 129.10]

IC50 [3]: 3 µM
SMILES: Cc1cc(-c2nc(-c3cc(S(=O)(=O)NCCC(C)(O)C(F)(F)F)ccc3C)cnc2N)ccn1 (stereo not drawn) [Example 129.13]

IC50 [8]: 0.411 µM
SMILES: Cc1ccc(S(=O)(=O)NCC2CCC(C)(C)O2)cc1-c1cnc(N)c(-n2cncn2)n1 (stereo in doubt) [Example 127.40, (R)-3-(5-amino-6-(1H-1,2,4-triazol-1-yl)pyrazin-2-yl)-N-((5,5-dimethyltetrahydrofuran-2-yl)methyl)-4-methylbenzenesulfonamide]

IC50 [1]: 2.59 µM
IC50 [2]: 1.04 µM
IC50 [3]: 0.63 µM
IC50 [8]: 0.172 µM
SMILES: Cc1ccc(S(=O)(=O)NCCC(C)(C)O)cc1-c1cnc(N)c(-c2ccnc(F)c2)n1 [Example 119.10, 3-(5-amino-6-(2-fluoropyridin-4-yl)pyrazin-2-yl)-N-(3-hydroxy-3-methylbutyl)-4-methylbenzenesulfonamide]

activity in assay E (PI 3-kinase gamma) ([11]; result in words): not shown any activity
SMILES: Cc1ccc(S(=O)(=O)NCCC(C)(C)O)cc1-c1cnc(N)c(-c2cccnc2OC(C)C)n1 [Reference example 119.12, 3-(5-amino-6-(2-isopropoxypyridin-3-yl)pyrazin-2-yl)-N-(3-hydroxy-3-methylbutyl)-4-methylbenzenesulfonamide]

IC50 [12]: 1.15 µM
Assay M RLM CI(int) [4]: 77 µL/min/mg
IC50 [1]: 6.99 µM
IC50 [2]: 0.63 µM
IC50 [3]: 0.69 µM
IC50 [8]: 0.042 µM
SMILES: Cc1nc(-c2nc(-c3cc(S(=O)(=O)NCCC(C)(C)O)ccc3C)cnc2N)cs1 [Example 119.30, 3-(5-amino-6-(2-methylthiazol-4-yl)pyrazin-2-yl)-N-(3-hydroxy-3-methylbutyl)-4-methylbenzenesulfonamide]
